Laboratory results as given in ChEMBL document CHEMBL5465560, “Selectivity Literature for EUbOPEN Chemogenomic Library” (2024).
Values belong to the molecule of their own block, whether it stands above or below them.

Legend:
[1] = Selectivity interaction (KinomeScan (DiscoverX)) EUB0001049a CDK2H; conditions: at 1 µM
[2] = target: T1, Dual serine/threonine and tyrosine protein kinase (Homo sapiens) (UniProt Q6XUX3); assay: Selectivity interaction (Ambit KINOMEscan and KiNATiv profiling in Jurkat cells) EUB0000090b DSTYK; format: cell-based; conditions: at 1 µM
T1 sequence (whole entry): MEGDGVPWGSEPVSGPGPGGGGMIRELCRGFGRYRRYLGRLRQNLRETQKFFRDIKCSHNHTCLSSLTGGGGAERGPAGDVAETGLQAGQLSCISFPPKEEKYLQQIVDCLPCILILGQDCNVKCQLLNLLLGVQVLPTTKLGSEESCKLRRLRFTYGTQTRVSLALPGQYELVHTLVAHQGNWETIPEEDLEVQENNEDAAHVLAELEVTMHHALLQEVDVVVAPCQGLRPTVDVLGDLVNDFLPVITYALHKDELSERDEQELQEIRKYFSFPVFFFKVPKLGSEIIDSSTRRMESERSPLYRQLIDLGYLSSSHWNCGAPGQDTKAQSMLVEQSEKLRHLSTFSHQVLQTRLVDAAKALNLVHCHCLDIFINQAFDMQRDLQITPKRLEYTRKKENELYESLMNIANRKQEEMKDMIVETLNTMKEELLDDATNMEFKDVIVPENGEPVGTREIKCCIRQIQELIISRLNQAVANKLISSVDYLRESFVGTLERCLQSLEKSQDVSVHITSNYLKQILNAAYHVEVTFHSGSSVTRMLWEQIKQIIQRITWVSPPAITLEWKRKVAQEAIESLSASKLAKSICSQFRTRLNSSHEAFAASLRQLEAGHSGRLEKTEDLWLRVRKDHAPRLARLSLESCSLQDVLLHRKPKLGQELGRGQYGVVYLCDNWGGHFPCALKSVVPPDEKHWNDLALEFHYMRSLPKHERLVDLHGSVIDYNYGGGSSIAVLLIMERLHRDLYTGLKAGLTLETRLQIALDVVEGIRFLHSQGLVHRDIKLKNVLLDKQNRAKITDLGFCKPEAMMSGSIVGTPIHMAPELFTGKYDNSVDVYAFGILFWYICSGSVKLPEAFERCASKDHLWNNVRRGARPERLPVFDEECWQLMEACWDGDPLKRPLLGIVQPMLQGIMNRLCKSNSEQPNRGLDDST

[3] = target: T2, Cyclin-G-associated kinase (Homo sapiens) (UniProt O14976); assay: Selectivity interaction (ActivX KiNativ screen (kinase selectivity in THP-1 cell lysates)) EUB0000639a GAK; format: subcellular; conditions: lysate
T2 sequence (whole entry): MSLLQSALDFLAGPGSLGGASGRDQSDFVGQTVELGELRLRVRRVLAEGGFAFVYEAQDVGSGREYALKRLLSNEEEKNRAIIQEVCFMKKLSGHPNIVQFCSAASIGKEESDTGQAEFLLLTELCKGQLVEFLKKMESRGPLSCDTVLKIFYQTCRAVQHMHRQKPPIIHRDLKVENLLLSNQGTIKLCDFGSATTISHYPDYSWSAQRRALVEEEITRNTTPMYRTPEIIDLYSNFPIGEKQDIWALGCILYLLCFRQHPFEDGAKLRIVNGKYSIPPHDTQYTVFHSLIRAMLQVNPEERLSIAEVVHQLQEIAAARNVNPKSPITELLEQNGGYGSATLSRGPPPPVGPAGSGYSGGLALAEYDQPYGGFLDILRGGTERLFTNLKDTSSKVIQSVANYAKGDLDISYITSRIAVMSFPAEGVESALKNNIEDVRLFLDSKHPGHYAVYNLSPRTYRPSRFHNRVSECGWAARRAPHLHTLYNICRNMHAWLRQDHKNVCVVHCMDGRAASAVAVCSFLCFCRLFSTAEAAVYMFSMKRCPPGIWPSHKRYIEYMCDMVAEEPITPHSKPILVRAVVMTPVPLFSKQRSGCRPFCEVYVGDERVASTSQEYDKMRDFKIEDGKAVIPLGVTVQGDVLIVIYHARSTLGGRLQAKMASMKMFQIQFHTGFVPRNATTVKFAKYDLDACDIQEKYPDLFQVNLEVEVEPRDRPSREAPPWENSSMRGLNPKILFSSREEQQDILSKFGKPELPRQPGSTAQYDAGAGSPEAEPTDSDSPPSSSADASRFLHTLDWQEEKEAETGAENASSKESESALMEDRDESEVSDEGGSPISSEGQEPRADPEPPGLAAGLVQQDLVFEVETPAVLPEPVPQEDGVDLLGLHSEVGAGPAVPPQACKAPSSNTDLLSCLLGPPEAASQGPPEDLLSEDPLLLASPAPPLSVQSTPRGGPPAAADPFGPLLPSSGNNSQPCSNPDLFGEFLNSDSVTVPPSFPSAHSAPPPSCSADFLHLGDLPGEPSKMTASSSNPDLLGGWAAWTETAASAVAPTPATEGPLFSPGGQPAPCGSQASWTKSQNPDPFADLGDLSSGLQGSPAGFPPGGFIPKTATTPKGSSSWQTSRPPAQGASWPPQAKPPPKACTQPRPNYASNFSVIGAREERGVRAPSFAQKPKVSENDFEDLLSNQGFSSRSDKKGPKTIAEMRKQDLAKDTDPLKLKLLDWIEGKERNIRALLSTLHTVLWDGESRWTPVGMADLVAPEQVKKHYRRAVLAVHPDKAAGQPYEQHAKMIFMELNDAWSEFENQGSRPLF

[4] = target: STE20-like serine/threonine-protein kinase (Homo sapiens, UniProt Q9H2G2); conditions: at 10 µM
[5] = target: Mitogen-activated protein kinase kinase kinase 1 (Homo sapiens, UniProt Q13233); assay: Selectivity interaction (KinomeScan (DiscoverX)) EUB0001079a MAP3K1; conditions: at 1 µM
[6] = target: Homeodomain-interacting protein kinase 3 (Homo sapiens, UniProt Q9H422); assay: Selectivity interaction (KinomeScan (DiscoverX)) EUB0000092b HIPK3; conditions: at 10 µM
[7] = target: Receptor tyrosine-protein kinase erbB-2 (Homo sapiens, UniProt P04626); assay: Selectivity interaction (KinomeScan (DiscoverX)) EUB0000655a ERBB2; conditions: at 10 µM
Chain of Receptor tyrosine-protein kinase erbB-2 (P04626 whole entry): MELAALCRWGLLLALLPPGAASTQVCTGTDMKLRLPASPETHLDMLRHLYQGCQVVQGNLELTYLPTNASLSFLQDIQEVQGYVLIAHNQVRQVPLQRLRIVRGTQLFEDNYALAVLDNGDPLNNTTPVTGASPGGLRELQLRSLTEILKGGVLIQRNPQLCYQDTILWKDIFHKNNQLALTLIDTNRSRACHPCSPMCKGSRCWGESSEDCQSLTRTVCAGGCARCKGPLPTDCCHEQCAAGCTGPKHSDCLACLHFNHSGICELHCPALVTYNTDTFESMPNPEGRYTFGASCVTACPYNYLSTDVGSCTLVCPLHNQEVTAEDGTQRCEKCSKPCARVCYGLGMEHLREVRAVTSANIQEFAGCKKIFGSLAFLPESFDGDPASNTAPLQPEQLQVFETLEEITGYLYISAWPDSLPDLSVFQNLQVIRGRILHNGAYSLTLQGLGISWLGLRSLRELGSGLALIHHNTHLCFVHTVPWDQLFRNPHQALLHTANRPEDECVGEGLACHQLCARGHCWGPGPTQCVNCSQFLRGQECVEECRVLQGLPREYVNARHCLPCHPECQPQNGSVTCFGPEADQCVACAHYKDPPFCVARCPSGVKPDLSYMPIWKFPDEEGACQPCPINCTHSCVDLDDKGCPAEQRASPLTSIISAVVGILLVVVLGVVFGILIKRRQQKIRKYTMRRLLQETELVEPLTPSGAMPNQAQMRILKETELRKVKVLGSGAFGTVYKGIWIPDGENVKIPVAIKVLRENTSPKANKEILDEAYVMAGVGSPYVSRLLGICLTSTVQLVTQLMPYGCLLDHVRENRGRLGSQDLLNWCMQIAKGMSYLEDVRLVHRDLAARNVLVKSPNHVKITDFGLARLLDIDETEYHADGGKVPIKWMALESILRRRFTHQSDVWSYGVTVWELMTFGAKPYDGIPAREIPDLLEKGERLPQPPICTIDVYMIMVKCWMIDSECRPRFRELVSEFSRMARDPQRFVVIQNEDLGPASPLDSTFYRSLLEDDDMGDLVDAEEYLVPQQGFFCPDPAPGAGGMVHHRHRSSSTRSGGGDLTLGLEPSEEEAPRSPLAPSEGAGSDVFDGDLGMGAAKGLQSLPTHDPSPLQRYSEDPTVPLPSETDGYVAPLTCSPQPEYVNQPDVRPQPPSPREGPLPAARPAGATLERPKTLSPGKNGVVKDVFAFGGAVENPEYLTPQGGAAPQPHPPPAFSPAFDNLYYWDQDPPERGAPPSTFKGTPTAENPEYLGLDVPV

Chain of Mitogen-activated protein kinase kinase kinase 1 (Q13233 whole entry): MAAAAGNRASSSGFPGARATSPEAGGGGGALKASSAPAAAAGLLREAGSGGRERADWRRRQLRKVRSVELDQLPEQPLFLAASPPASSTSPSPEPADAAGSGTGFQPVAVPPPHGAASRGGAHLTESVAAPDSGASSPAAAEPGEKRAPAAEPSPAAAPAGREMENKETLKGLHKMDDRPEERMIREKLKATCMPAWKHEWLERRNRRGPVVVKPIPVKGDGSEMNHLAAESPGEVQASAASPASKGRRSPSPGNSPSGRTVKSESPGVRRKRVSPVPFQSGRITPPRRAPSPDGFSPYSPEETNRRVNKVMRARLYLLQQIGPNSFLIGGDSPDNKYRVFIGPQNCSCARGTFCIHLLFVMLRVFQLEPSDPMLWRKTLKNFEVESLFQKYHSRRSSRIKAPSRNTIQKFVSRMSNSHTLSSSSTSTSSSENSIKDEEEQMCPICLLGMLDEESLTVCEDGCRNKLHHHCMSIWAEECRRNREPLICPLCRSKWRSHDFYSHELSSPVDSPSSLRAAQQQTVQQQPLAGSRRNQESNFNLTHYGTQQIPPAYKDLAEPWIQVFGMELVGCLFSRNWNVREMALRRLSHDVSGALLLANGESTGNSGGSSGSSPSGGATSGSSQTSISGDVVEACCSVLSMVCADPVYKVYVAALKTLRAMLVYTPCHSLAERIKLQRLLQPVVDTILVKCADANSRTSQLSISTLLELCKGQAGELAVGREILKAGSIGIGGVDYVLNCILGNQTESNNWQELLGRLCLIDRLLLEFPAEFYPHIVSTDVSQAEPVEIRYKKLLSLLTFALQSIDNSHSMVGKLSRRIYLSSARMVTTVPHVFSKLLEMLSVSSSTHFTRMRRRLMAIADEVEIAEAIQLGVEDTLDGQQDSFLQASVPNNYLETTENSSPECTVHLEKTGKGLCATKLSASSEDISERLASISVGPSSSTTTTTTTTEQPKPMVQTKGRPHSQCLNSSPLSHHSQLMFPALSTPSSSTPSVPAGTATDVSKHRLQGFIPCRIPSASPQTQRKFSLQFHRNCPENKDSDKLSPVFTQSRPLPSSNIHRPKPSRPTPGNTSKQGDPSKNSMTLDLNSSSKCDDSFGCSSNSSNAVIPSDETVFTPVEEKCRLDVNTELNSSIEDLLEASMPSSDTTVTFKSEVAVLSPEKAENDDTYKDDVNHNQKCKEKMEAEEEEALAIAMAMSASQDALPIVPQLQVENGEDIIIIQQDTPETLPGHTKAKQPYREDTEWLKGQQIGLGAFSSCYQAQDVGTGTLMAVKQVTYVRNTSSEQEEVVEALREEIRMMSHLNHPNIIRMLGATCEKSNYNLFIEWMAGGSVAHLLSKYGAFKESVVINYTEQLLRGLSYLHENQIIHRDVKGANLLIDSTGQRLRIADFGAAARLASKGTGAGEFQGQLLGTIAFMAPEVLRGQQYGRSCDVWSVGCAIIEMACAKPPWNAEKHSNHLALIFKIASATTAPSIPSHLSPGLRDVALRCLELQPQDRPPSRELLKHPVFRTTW
Chain of Homeodomain-interacting protein kinase 3 (Q9H422 whole entry, looked up): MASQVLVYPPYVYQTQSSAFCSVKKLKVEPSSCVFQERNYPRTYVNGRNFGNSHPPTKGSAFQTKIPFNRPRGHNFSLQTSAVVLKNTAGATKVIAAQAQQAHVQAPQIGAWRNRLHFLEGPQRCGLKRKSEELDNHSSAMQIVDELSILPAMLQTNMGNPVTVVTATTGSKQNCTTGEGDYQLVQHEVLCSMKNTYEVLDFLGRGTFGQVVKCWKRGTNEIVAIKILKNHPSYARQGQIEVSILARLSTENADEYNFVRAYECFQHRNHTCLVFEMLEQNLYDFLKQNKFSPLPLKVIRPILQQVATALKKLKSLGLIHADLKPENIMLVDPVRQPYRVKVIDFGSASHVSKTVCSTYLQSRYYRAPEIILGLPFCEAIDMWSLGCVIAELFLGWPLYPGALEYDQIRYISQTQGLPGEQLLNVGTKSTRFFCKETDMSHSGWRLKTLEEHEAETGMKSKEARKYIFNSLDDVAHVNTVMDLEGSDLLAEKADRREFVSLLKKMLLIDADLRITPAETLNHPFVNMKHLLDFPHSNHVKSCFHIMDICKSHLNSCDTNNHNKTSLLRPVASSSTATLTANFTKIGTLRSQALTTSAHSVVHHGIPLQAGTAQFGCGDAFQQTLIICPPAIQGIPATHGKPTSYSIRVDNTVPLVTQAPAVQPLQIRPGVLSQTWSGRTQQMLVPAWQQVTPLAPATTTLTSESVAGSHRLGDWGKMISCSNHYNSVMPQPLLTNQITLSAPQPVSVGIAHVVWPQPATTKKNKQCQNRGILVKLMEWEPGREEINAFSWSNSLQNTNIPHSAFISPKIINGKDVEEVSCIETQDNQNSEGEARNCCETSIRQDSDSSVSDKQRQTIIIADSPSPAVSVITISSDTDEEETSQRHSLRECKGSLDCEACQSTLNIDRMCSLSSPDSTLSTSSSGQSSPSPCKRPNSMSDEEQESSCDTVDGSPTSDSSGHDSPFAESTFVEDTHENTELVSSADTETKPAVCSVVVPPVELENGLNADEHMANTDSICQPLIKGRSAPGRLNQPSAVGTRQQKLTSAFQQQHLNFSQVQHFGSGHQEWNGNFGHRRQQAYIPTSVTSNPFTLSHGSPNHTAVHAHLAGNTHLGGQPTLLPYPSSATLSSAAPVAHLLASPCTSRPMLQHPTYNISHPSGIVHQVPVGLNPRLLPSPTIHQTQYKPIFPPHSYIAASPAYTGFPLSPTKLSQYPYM

SMILES: COc1cc(Nc2nc(C)cc(-c3cnn4nc(OC)ccc34)n2)cc(C(F)(F)F)c1
% of control [1]: 100%

SMILES: CN(C)C/C=C/C(=O)Nc1ccc(C(=O)N2CCCC(Nc3ncc(Cl)c(-c4c[nH]c5ccccc45)n3)C2)cc1 (stereo unspecified)
% of control [2]: 100%

% of inhibition ([3]; at 0.01 µM): 16.2%
% of inhibition ([3]; at 0.04 µM): 3.7%
% of inhibition ([3]; at 0.2 µM): -10%
% of inhibition ([3]; at 1 µM): 15.7%
% of inhibition ([3]; at 5 µM): 63.1%
SMILES: CC[C@@H]1[C@H](F)C(=O)N[C@@H]1COc1nccc2cc(C(N)=O)c(OC)cc12 [ZIMLOVISERTIB]

% of control [4]: 100%
SMILES: CCN(CC)CCCCNc1ncc2cc(-c3cc(OC)cc(OC)c3)c(NC(=O)NC(C)(C)C)nc2n1

SMILES: Nc1cnc(N2CCc3cc(S(=O)(=O)Nc4c(F)cc(Cl)cc4F)cc(N4CCCC4=O)c32)nc1 [TP-020n]
% of control [5]: 100%

SMILES: CCC(=O)N1CCN(c2ccc(-n3c(=O)ccc4cnc5ccc(-c6cnc7ccccc7c6)cc5c43)cc2C(F)(F)F)CC1
% of control [6]: 86%

SMILES: CN(C)CCOc1ccc(-c2nc(-c3ccncc3)c(-c3ccc4c(c3)CC/C4=N\O)[nH]2)cc1
% of control [7]: 40%
